Test results as given in US20220289794A1, “SYNTHETIC ANTIMICROBIAL PEPTIDES” (priority 2019, published 2022).
Values after ≈ are worked out from the molar mass of the structure shown. Non-standard residues stand in square brackets, D forms with d. Residues, ends and D or L forms follow the SMILES beside them. dDip = N[C@@H](C(=O)O)C(c1ccccc1)c1ccccc1; 2Nal = N[C@@H](Cc1ccc2ccccc2c1)C(=O)O; d2Nal = N[C@H](Cc1ccc2ccccc2c1)C(=O)O

Legend:
[1] = test system: Pseudomonas aeruginosa (ATCC 27883); conditions: ATCC 27883
[2] = test system: Escherichia coli (ATCC 25922); conditions: ATCC 25922
[3] = in vitro; conditions: human, fresh human red blood cells (washed), pH 7.4
[4] = test system: Methicillin-resistant Staphylococcus aureus MRSA (ATCC BAA-1556); conditions: ATCC BAA-1556
[5] = test system: S. aureus ATCC 29213; conditions: ATCC 29213

| Compound | MIC P. aeruginosa ATCC 27883 [1] [µg/mL] | MIC E. coli ATCC 25922 [2] [µg/mL] | HC50 at 0.5 h [3] [µg/mL] | MIC MRSA ATCC BAA-1556 [4] [µg/mL] | MIC S. aureus ATCC 29213 [5] [µg/mL] |
| --- | --- | --- | --- | --- | --- |
| N=C(N)NCCC[C@@H]1NC(=O)[C@H](CCCNC(=N)N)NC(=O)[C@@H](CCCNC(=N)N)NC(=O)[C@@H](CCCNC(=N)N)NC(=O)[C@@H](Cc2ccc3ccccc3c2)NC(=O)[C@@H](Cc2ccc3ccccc3c2)NC(=O)[C@H](Cc2c[nH]c3ccccc23)NC1=O [IFX-117, c[arg-arg-Arg-Arg-Trp-naI-naI]] (cyclo([dR][dR]RRW[d2Nal][d2Nal])) | 32 (≈ 26.5 µM) | 32 (≈ 26.5 µM) | 190 |  |  |
| N=C(N)NCCC[C@@H]1NC(=O)[C@H](CCCNC(=N)N)NC(=O)[C@H](CCCNC(=N)N)NC(=O)[C@H](Cc2ccc3ccccc3c2)NC(=O)[C@@H](Cc2ccc3ccccc3c2)NC(=O)[C@H](Cc2ccc3ccccc3c2)NC(=O)[C@H](CCCNC(=N)N)NC1=O [IFX-075, c[Arg-Arg-Arg-Arg-NaI-naI-NaI]] (cyclo(RRRR[2Nal][d2Nal][2Nal])) | 12.5 (≈ 10.3 µM) |  | 100 |  |  |
| N=C(N)NCCC[C@@H]1NC(=O)[C@@H](CCCNC(=N)N)NC(=O)[C@H](CCCNC(=N)N)NC(=O)[C@@H](C(c2ccccc2)c2ccccc2)NC(=O)[C@@H](C(c2ccccc2)c2ccccc2)NC(=O)[C@@H](C(c2ccccc2)c2ccccc2)NC(=O)[C@@H](CCCNC(=N)N)NC1=O [IFX-070, c[Arg-arg-Arg-arg-dip-dip-dip]] (cyclo(R[dR]R[dR][dDip][dDip][dDip])) | 12.5 (≈ 9.66 µM) |  | 340 | 1.5 (≈ 1.16 µM) | 3.1 (≈ 2.39 µM) |
| N=C(N)NCCC[C@@H]1NC(=O)[C@H](Cc2ccc3ccccc3c2)NC(=O)[C@H](Cc2ccc3ccccc3c2)NC(=O)[C@H](Cc2ccc3ccccc3c2)NC(=O)[C@@H](CCCNC(=N)N)NC(=O)[C@H](CCCNC(=N)N)NC(=O)[C@H](CCCNC(=N)N)NC1=O [IFX-077, c[Arg-Arg-Arg-arg-NaI-NaI-NaI]] (cyclo(RRR[dR][2Nal][2Nal][2Nal])) | 12.5 (≈ 10.3 µM) |  | 100 |  |  |
| N=C(N)NCCC[C@@H]1NC(=O)[C@H](Cc2ccc3ccccc3c2)NC(=O)[C@H](Cc2ccc3ccccc3c2)NC(=O)[C@@H](Cc2c[nH]c3ccccc23)NC(=O)[C@@H](CCCNC(=N)N)NC(=O)[C@@H](CCCNC(=N)N)NC(=O)[C@H](CCCNC(=N)N)NC1=O [IFX-120, c[Arg-Arg-arg-arg-trp-NaI-NaI]] (cyclo(RR[dR][dR][dW][2Nal][2Nal])) | 32 (≈ 26.5 µM) | 32 (≈ 26.5 µM) | 195 |  |  |
| N=C(N)NCCC[C@H]1NC(=O)[C@@H](CCCNC(=N)N)NC(=O)[C@@H](CCCNC(=N)N)NC(=O)[C@@H](Cc2ccc3ccccc3c2)NC(=O)[C@@H](Cc2c[nH]c3ccccc23)NC(=O)[C@@H](Cc2ccc3ccccc3c2)NC(=O)[C@@H](CCCNC(=N)N)NC1=O [IFX-142, c[arg-arg-arg-arg-naI-trp-naI]] (cyclo([dR][dR][dR][dR][d2Nal][dW][d2Nal])) | 32 (≈ 26.5 µM) | 16 (≈ 13.3 µM) | 285 | 3.1 (≈ 2.57 µM) |  |
| N=C(N)NCCC[C@@H]1NC(=O)[C@H](CCCNC(=N)N)NC(=O)[C@H](CCCNC(=N)N)NC(=O)[C@@H](Cc2ccc3ccccc3c2)NC(=O)[C@@H](Cc2ccc3ccccc3c2)NC(=O)[C@@H](Cc2ccc3ccccc3c2)NC(=O)[C@H](CCCNC(=N)N)NC1=O [IFX-086, c[Arg-Arg-Arg-Arg-naI-naI-naI]] (cyclo(RRRR[d2Nal][d2Nal][d2Nal])) | 12.5 (≈ 10.3 µM) |  | 155 |  |  |
| N=C(N)NCCC[C@@H]1NC(=O)[C@@H](CCCNC(=N)N)NC(=O)[C@H](CCCNC(=N)N)NC(=O)[C@@H](Cc2ccc3ccccc3c2)NC(=O)[C@@H](Cc2ccc3ccccc3c2)NC(=O)[C@@H](Cc2ccc3ccccc3c2)NC(=O)[C@@H](CCCNC(=N)N)NC1=O [IFX-084, c[Arg-arg-Arg-arg-naI-naI-naI]] (cyclo(R[dR]R[dR][d2Nal][d2Nal][d2Nal])) | 12.5 (≈ 10.3 µM) |  | 400 | 1.5 (≈ 1.23 µM) | 3.1 (≈ 2.55 µM) |
| N=C(N)NCCC[C@@H]1NC(=O)[C@@H](CCCNC(=N)N)NC(=O)[C@H](CCCNC(=N)N)NC(=O)[C@@H](CCCNC(=N)N)NC(=O)[C@@H](C(c2ccccc2)c2ccccc2)NC(=O)[C@@H](C(c2ccccc2)c2ccccc2)NC(=O)[C@@H](C(c2ccccc2)c2ccccc2)NC1=O [IFX-068, c[arg-Arg-arg-Arg-dip-dip-dip]] (cyclo([dR]R[dR]R[dDip][dDip][dDip])) | 12.5 (≈ 9.66 µM) |  | 280 |  |  |
| N=C(N)NCCC[C@@H]1NC(=O)[C@H](CCCNC(=N)N)NC(=O)[C@@H](CCCNC(=N)N)NC(=O)[C@@H](CCCNC(=N)N)NC(=O)[C@H](Cc2ccc3ccccc3c2)NC(=O)[C@H](Cc2ccc3ccccc3c2)NC(=O)[C@@H](Cc2c[nH]c3ccccc23)NC1=O [IFX-121, c[arg-arg-Arg-Arg-trp-NaI-NaI]] (cyclo([dR][dR]RR[dW][2Nal][2Nal])) | 32 (≈ 26.5 µM) | 32 (≈ 26.5 µM) | 425 | 6.2 (≈ 5.14 µM) |  |
